Test [1] has as its target T1, human orexin 1 receptor (Homo sapiens, UniProt O43613).
T1 construct: expressed in transfected cells
T1 sequence (O43613 1-425): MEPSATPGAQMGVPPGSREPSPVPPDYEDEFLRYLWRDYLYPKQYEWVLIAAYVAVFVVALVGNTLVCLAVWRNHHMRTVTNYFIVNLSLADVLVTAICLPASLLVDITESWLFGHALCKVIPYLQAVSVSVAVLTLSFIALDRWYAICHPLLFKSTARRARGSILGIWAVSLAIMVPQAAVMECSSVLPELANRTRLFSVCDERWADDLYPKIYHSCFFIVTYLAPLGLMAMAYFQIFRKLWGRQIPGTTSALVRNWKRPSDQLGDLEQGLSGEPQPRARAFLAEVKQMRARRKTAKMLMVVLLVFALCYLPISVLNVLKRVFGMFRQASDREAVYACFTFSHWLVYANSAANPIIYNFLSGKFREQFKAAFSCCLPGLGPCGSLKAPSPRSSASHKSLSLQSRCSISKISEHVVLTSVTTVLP
In words: Radioligand binding assay ([3H]-SB649868 competition), human orexin 1 receptor. Conditions: radioligand [3H]-SB649868; read-out: Binding hOx1R Kd. The procedure:
(§1) Radioligand Binding Assay
(§2) For crude cell membrane preparations, cells (CHO, Chinese hamster ovary or HEK, human embryonic kidney) expressing human orexin 1 or human orexin 2 receptors, were washed with HEPES (10 mM, pH 7.5), scraped off the culture plates with the same buffer, and centrifuged at 4° C. for 5 min at 2500×g. The cell pellet was either stored at −80° C. or used directly. Before the experiments, cell membranes were re-suspended in binding assay buffer (10 mM HEPES, 0.5% (w/v) bovine serum albumin, pH 7.5) by homogenisation with a Polytron homogeniser at 50 Hz for 20 s. Cell membranes were also used as made available by commercial providers.
(§3) Bound radioactivity was measured, and data were analysed with the program XLFIT or Graphpad Prism. Protein concentration was determined according to the Bradford/BioRad Protein Assay Kit.
(§4) In competition experiments, cell homogenates (150 μl) were incubated in assay buffer (10 mM HEPES, pH 7.5, 0.5% (w/v) bovine serum albumin, 5 mM MgCl2, 1 mMCaCl2, and tween 0.05%) for 1 h at room temperature with about 1 nM of the radioligand [^3H]-SB649868, 66 Ci/mmole, 50 μl), and with various concentrations of compounds of the invention (50 μl) in triplicates; non-specific binding was determined in the presence of almorexant (10 μM). Reactions were terminated by vacuum filtration, 3 washes of ice cold wash buffer (Tris-HCl pH 7.4/10 mM, with NaCl 154 mM). Competition data is expressed in Table 1 as Kd [μM].

Test [2] concerns the target T1, human orexin 1 receptor. As to the kind of experiment: Calcium accumulation in cells (FLIPR), antagonism of orexin A, human orexin 1 receptor. It is filed as cell-based. Conditions: for pKi: calcium accumulation, antagonism of orexin A, Cheng-Prusoff corrected, read-out: FLIPR hOx1R Ki.
The target in test [3] is T2, human orexin 2 receptor (Homo sapiens, UniProt O43614).
T2 construct: expressed in transfected cells
T2 sequence (O43614 1-444): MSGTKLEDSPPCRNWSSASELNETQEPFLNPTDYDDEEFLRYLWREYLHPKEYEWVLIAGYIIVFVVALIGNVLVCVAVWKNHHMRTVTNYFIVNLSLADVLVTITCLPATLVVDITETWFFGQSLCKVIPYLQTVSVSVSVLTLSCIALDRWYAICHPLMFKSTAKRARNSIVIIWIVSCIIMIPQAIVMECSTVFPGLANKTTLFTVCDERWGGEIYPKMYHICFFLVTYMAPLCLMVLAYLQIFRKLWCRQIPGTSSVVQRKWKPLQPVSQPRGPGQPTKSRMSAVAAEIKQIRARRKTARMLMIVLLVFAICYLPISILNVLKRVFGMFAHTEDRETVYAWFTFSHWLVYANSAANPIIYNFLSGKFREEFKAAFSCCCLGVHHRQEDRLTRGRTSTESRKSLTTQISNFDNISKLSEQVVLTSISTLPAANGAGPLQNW
As to the kind of experiment: Radioligand binding assay ([3H]-SB649868 competition), human orexin 2 receptor. The settings on record: radioligand [3H]-SB649868; read-out: Binding hOx2R Kd. The procedure: as §1, §2, §3, §4

Test [4] addresses T2, human orexin 2 receptor. As to the kind of experiment: Calcium accumulation in cells (FLIPR), antagonism of orexin A, human orexin 2 receptor. Type of test: cell-based. The settings on record: calcium accumulation, antagonism of orexin A, Cheng-Prusoff corrected; read-out: FLIPR hOx2R Ki.

SMILES strings stand for the structures. pKd, pKi: −log10 of the molar value.

Take `Cc1cc(C)nc(N2CCC3(CC2)OCCN(Cc2n[nH]cc2-c2ccccc2)C3=O)n1` [Example 2.13, 9-(4,6-Dimethylpyrimidin-2-yl)-4-((4-phenyl-1H-pyrazol-3-yl)methyl)-1-oxa-4,9-diazaspiro[5.5]undecan-5-one]: the pKd (commonly −log10 of the Kd, conventionally taken in molar units) in test [1] was 5.81; in test [3] it was 6.84. The pKi (as a rule, the Ki on a negative log10 scale, so that one unit is a factor of ten) in test [2] was 5.82; in test [4] it was 7.42.
The matching figures for `Cc1cc(C)nc(N2CCC3(CCC(=O)N3Cc3cccc4[nH]ccc34)CC2)n1` [Example 8.3, 1-((1H-Indol-4-yl)methyl)-8-(4,6-dimethylpyrimidin-2-yl)-1,8-diazaspiro[4.5]decan-2-one]: 5.62, 7.52, 5.92 and 8.64.
Take `Cc1cc(C)nc(N2CCC3(CC2)NCCN(Cc2nn(C)nc2-c2cccc(N4CCOCC4)c2)C3=O)n1` [Example 1.77]: the pKd in test [1] was 5.55; in test [3], 6.65. Moreover, the pKi in test [2] was 5.54; in test [4], 7.25.
`Cc1cc(C)nc(N2CCC3(CC2)NCCN(Cc2nn(C)cc2-c2cccc(C(C)C)c2)C3=O)n1` [Example 1.68, 9-(4,6-dimethyl-pyrimidin-2-yl)-4-((4-(3-isopropyl-phenyl)-1-methyl-1H-pyrazol-3-yl)methyl)-1,4,9-triazaspiro[5.5] undecan-5-one]: the pKd in test [1] was 5.84; in test [3] it was 7.89. For the same molecule, the pKi is 6.02 in test [2] and 8.40 in test [4].
Consider `CC(=O)c1cccc(-c2cn(C)nc2CN2CCNC3(CCN(c4nc(C)cc(C)n4)CC3)C2=O)c1` [Example 1.48, 4-((4-(3-Acetylphenyl)-1-methyl-1H-pyrazol-3-yl)methyl)-9-(4,6-dimethyl-pyrimidin-2-yl)-1,4,9-triazaspiro[5.5] undecan-5-one], for which the values for the negative-log Kd (pKd) in test [1] and in test [3] were 5.64 and 7.00, respectively. The pKi in test [2] is 5.56; in test [4] it was 7.92.
The matching figures for `CCc1cccc(-c2cn(C)nc2CN2CCNC3(CCN(c4nc(C)cc(C)n4)CC3)C2=O)c1` [Example 1.67, 9-(4,6-dimethyl-pyrimidin-2-yl)-4-((4-(3-ethyl-phenyl)-1-methyl-1H-pyrazol-3-yl)methyl)-1,4,9-triazaspiro[5.5] undecan-5-one]: 5.75, 7.30, 5.94 and 8.30.
On to `Cc1ccc(C)c(CN2C(=O)COCC23CCN(c2nc(C)cc(C)n2)CC3)c1` [Example 8.15, 1-(2,5-Dimethylbenzyl)-9-(4,6-dimethylpyrimidin-2-yl)-4-oxa-1,9-diazaspiro[5.5]undecan-2-one], for which the negative-log Kd (pKd) was under 5.00 in test [1] and 6.78 in test [3]. Also, the inhibition (as a rule, the percentage by which the read-out fell short of the control) at 10 µM in test [2] (measured at a concentration of 10 μM of compound, read-out: FLIPR hOx1R % inhibition) was determined as 15%. Further, in test [4], the negative logarithm of the Ki (pKi) was 7.55.
For the molecule `Cc1cc(C#N)nc(N2CCC3(CC2)NCCN(Cc2c[nH]c4ccccc24)C3=O)n1` [Example 1.40, 2-(4-((1H-Indol-3-yl)methyl)-5-oxo-1,4,9-triazaspiro[5.5]undecan-9-yl)-6-methylpyrimidine-4-carbonitrile], the pKd was 5.28 in test [1] and 7.10 in test [3]. The negative-log Ki (pKi) in test [2] was 5.55; in test [4], 7.70.
As for `COc1cccc(-c2ocnc2CN2CCNC3(CCN(c4nc(C)cc(C)n4)CC3)C2=O)c1` [Example 1.9, 9-(4,6-Dimethylpyrimidin-2-yl)-4-((5-(3-methoxyphenyl)oxazol-4-yl)methyl)-1,4,9-triazaspiro[5.5] undecan-5-one], the figures for the pKd in test [1] and in test [3] were 6.40 and 7.60, respectively. Moreover, the pKi is 6.64 in test [2] and 8.40 in test [4].
The matching figures for `COc1cc(C)nc(N2CCC3(CC2)OCCN(Cc2c[nH]c4ccccc24)C3=O)n1` [Example 2.18, 4-((1H-Indol-3-yl)methyl)-9-(4-methoxy-6-methylpyrimidin-2-yl)-1-oxa-4,9-diazaspiro[5.5]undecan-5-one]: 6.20, 7.64, 6.42 and 8.40.
As for `COc1cccc(-c2sc(C)nc2CN2CCNC3(CCN(c4nc(C)cc(C)n4)CC3)C2=O)c1` [Example 1.24, 9-(4,6-Dimethyl-pyrimidin-2-yl)-4-((5-(3-methoxyphenyl)-2-methylthiazol-4-yl)methyl)-1,4,9-triazaspiro[5.5] undecan-5-one], the pKd was 6.03 in test [1] and 7.46 in test [3]. Further, the negative logarithm of the Ki (pKi) in test [2] is 6.12; in test [4], 8.00.
The corresponding values for `O=C1N(Cc2c[nH]c3ccccc23)CCCC12CCN(c1nc3ccccc3[nH]1)C2` (stereo not shown) [Example 7.15, 7-((1H-indol-3-yl)methyl)-2-(1H-benzo[d]imidazol-2-yl)-2,7-diazaspiro[4.5]decan-6-one] are 7.37, 7.55, 6.32 and 7.17.
With `Cc1cc(C)nc(N2CCC3(CC2)OCCN(Cc2c[nH]c4ccc(F)cc24)C3=O)n1` [Example 2.6, 9-(4,6-Dimethylpyrimidin-2-yl)-4-((5-fluoro-1H-indol-3-yl)methyl)-1-oxa-4,9-diazaspiro[5.5]undecan-5-one], the pKd in test [1] is 5.97; in test [3] it was 7.59. Besides, the negative-log Ki (pKi) in test [2] is 5.97; in test [4] it was 7.89.
Consider `O=C1COCC2(CCN(c3cnc4ccccc4n3)CC2)N1Cc1cccc(-c2ccccn2)c1` [Example 8.11, 1-(3-(Pyridin-2-yl)benzyl)-9-(quinoxalin-2-yl)-4-oxa-1,9-diazaspiro[5.5]undecan-2-one], for which the pKd is 7.28 in test [1] and 5.34 in test [3]. For the same molecule, the values for the pKi in test [2] and in test [4] were 7.28 and 6.11, respectively.
`Cc1cc(C)nc(N2CCC3(CC2)NCCN(Cc2nn(C)cc2-c2cccc(OC(F)(F)F)c2)C3=O)n1` [Example 1.46, 9-(4,6-Dimethyl-pyrimidin-2-yl)-4-((1-methyl-4-(3-(trifluoro-methoxy)phenyl)-1H-pyrazol-3-yl)methyl)-1,4,9-triazaspiro[5.5] undecan-5-one]: the negative-log Kd (pKd) is 5.41 in test [1] and 7.04 in test [3]. Besides, the pKi is 5.69 in test [2] and 8.30 in test [4].
The corresponding values for `COc1ccnc(N2CCC3(CCCN(Cc4c[nH]c5ccccc45)C3=O)C2)n1` (stereo not shown) [Example 7.4, 7-((1H-Indol-3-yl)methyl)-2-(4-methoxypyrimidin-2-yl)-2,7-diazaspiro[4.5]decan-6-one] are 6.70, 6.82, 6.50 and 7.23.
Turning to `COc1cncc(-c2cn(C)nc2CN2CCNC3(CCN(c4nc(C)cc(C)n4)CC3)C2=O)c1` [Example 1.55, 9-(4,6-Dimethyl-pyrimidin-2-yl)-4-((4-(5-methoxypyridin-3-yl)-1-methyl-1H-pyrazol-3-yl)methyl)-1,4,9-triazaspiro[5.5] undecan-5-one], the negative logarithm of the Kd (pKd) is 5.23 in test [1] and 6.79 in test [3]. Besides, in test [4], the negative logarithm of the Ki (pKi) is 7.80.
For `COc1cc(C)nc(N2CCC3(CCN(Cc4c[nH]c5ccccc45)C3=O)CC2)n1` [Example 3.18, 2-(1H-Indol-3-ylmethyl)-8-(4-methoxy-6-methyl-pyrimidin-2-yl)-2,8-diaza-spiro[4.5]decan-1-one], the pKi in test [2] was 5.91; in test [4], 7.43. Further, the negative logarithm of the Kd (pKd) in test [3] was 5.99.
